In patent publication US9951028B2, “Agricultural chemicals” (REDAG CROP PROTECTION LTD, priority 2013, dated 2018):

How the values were obtained:
Assay in all cases: Herbicidal efficacy screen, corrected necrosis
Type in all cases: in vivo
[1] = system: Abutilon theophrasti (China Jute)
Description: (§1) Plants were obtained as seeds and were grown to the 2-4 true leaf stage. Plants were grown under laboratory conditions, individually in seed trays. Each plant (in an approximately 3 cm diameter plug) was then detached from the tray for spraying. The compounds were screened at a range of five concentrations, diluted in acetone and Tween™. A carrier only control was also conducted. Treatments were applied directly onto the plants, using a potter tower, at a specified application rate. One plant of each species was sprayed using a potter tower. The 3 different types of plants were placed on a 10 cm diameter platform directly beneath the potter sprayer and sprayed simultaneously. The growth of the plants and any Phytotoxicity effects were then assessed at intervals over 21 days, according to EPPO guideline PP1/135. In the tables below C represents a percentage increase in necrosis relative to the control of 0.1-50; B represents a percentage inhibition of 50-80; and A represents a percentage inhibition of 80-100. Certain compounds of the invention were screened for herbicidal efficacy against target plants: Amaranthus retroflexus (redroot pigweed), Abutilon theophrasti (China Jute): Capsella bursa-pastoris, (shepherd's-purse) Echinochloa crus-galli, Hordeum vulgare (Barley),

[2] = system: Capsella bursa-pastoris, (shepherd's-purse)
Description: as §1

[3] = system: Amaranthus retroflexus (redroot pigweed)
Description: as §1

[4] = 6.25 g/ha, day 1 post application
[5] = 6.25 g/ha, day 7 post application
[6] = 12.5 g/ha, day 1 post application
[7] = 12.5 g/ha, day 7 post application
[8] = 25 g/ha, day 1 post application
[9] = 25 g/ha, day 7 post application
[10] = 50 g/ha, day 1 post application
[11] = 50 g/ha, day 7 post application
[12] = 100 g/ha, day 1 post application
[13] = 100 g/ha, day 7 post application

`CC(C)N(C)S(=O)(=O)NC(=O)c1cc(-n2c(=O)cc(C(F)(F)F)n(C)c2=O)c(F)cc1Cl` [Compound 25, 2-Chloro-4-fluoro-N-(isopropyl(methyl)sulfamoyl)-5-[3-methyl-2,6-dioxo-4-(trifluoromethyl)pyrimidin-1-yl]benzamide, reference compound] was tested. Which “Average of corrected necrosis” value [1, 4] did it give?
Its value is “C (C represents a percentage increase in necrosis relative to the control of 0.1-50)”.

And the “Average of corrected necrosis” value [1, 5]?
The value was “A (A represents a percentage inhibition of 80-100)”.

What about the “Average of corrected necrosis” value [1, 6] of the same molecule?
The value was “C (C represents a percentage increase in necrosis relative to the control of 0.1-50)”.

What about the “Average of corrected necrosis” value [1, 7] of the same molecule?
Its value is “A (A represents a percentage inhibition of 80-100)”.

What about the “Average of corrected necrosis” value [1, 8] of the same molecule?
The value was “C (C represents a percentage increase in necrosis relative to the control of 0.1-50)”.

What about the “Average of corrected necrosis” value [1, 9] of the same molecule?
Its value is “A (A represents a percentage inhibition of 80-100)”.

What about the “Average of corrected necrosis” value [1, 10] of the same molecule?
The value was “C (C represents a percentage increase in necrosis relative to the control of 0.1-50)”.

And the “Average of corrected necrosis” value [1, 11]?
The value was “A (A represents a percentage inhibition of 80-100)”.

What about the “Average of corrected necrosis” value [1, 12] of the same molecule?
The value was “C (C represents a percentage increase in necrosis relative to the control of 0.1-50)”.

What about the “Average of corrected necrosis” value [1, 13] of the same molecule?
The value was “A (A represents a percentage inhibition of 80-100)”.

What about the “Average of corrected necrosis” value [2, 4] of the same molecule?
Its value is 0%.

And the “Average of corrected necrosis” value [2, 5]?
The value was “A (A represents a percentage inhibition of 80-100)”.

And the “Average of corrected necrosis” value [2, 6]?
The value was 0%.

What about the “Average of corrected necrosis” value [2, 7] of the same molecule?
The value was “A (A represents a percentage inhibition of 80-100)”.

What about the “Average of corrected necrosis” value [2, 8] of the same molecule?
Its value is 0%.

And the “Average of corrected necrosis” value [2, 9]?
The value was “A (A represents a percentage inhibition of 80-100)”.

And the “Average of corrected necrosis” value [2, 10]?
The value was “C (C represents a percentage increase in necrosis relative to the control of 0.1-50)”.

And the “Average of corrected necrosis” value [2, 11]?
Its value is “A (A represents a percentage inhibition of 80-100)”.

What about the “Average of corrected necrosis” value [2, 12] of the same molecule?
Its value is “C (C represents a percentage increase in necrosis relative to the control of 0.1-50)”.

What about the “Average of corrected necrosis” value [2, 13] of the same molecule?
The value was “A (A represents a percentage inhibition of 80-100)”.

And the “Average of corrected necrosis” value [3, 4]?
The value was “C (C represents a percentage increase in necrosis relative to the control of 0.1-50)”.

And the “Average of corrected necrosis” value [3, 5]?
The value was “A (A represents a percentage inhibition of 80-100)”.

What about the “Average of corrected necrosis” value [3, 6] of the same molecule?
The value was “C (C represents a percentage increase in necrosis relative to the control of 0.1-50)”.

What about the “Average of corrected necrosis” value [3, 7] of the same molecule?
The value was “A (A represents a percentage inhibition of 80-100)”.

And the “Average of corrected necrosis” value [3, 8]?
The value was “C (C represents a percentage increase in necrosis relative to the control of 0.1-50)”.

What about the “Average of corrected necrosis” value [3, 9] of the same molecule?
The value was “A (A represents a percentage inhibition of 80-100)”.

What about the “Average of corrected necrosis” value [3, 10] of the same molecule?
The value was “C (C represents a percentage increase in necrosis relative to the control of 0.1-50)”.

And the “Average of corrected necrosis” value [3, 11]?
Its value is “A (A represents a percentage inhibition of 80-100)”.

And the “Average of corrected necrosis” value [3, 12]?
Its value is “C (C represents a percentage increase in necrosis relative to the control of 0.1-50)”.

What about the “Average of corrected necrosis” value [3, 13] of the same molecule?
Its value is “A (A represents a percentage inhibition of 80-100)”.
